Here are results for 25 compounds from patent publication US11117900B2 (Vertex Pharmaceuticals Incorporated, priority 2012, dated 2021).

Molecules are shown by their SMILES.

The subject of the test is HCT116 colorectal cancer cells. In words: Cisplatin sensitization assay (96 h MTS cell viability).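 Note: compound concentration needed to lower the IC50 of Cisplatin alone by a set fold.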 Format: cell-based. The conditions noted are these: Cisplatin sensitization value. In a few lines:
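HCT116 cells were dosed simultaneously with compound and cisplatin as a full matrix of 2-fold serial dilutions from 10 μM top final concentration. Incubation was 96 h at 37° C., 5% CO2, followed by 1 h with MTS reagent for the viability read-out. Sensitization values were binned into +++, ++ and + categories.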
As for `Nc1nn2cc(F)cnc2c1C(=O)Nc1cncc(F)c1N1CCC(S(=O)(=O)N2CCC2)CC1` [I-N-169, 2-amino-N-(4-(4-(azetidin-1-ylsulfonyl)piperidin-1-yl)-5-fluoropyridin-3-yl)-6-fluoropyrazolo[1,5-a]pyrimidine-3-carboxamide], the “Cisplatin Sensitization Assay” value is recorded as “+++ (Compounds with a Cisplatin sensitization value of <0.02 μM are marked with “+++.”)”.

In the case of `Nc1nn2cc(Cl)cnc2c1C(=O)Nc1cnccc1N1CCN(C2CC2)CC1` [I-N-64, 2-amino-6-chloro-N-(4-(4-cyclopropylpiperazin-1-yl)pyridin-3-yl)pyrazolo[1,5-a]pyrimidine-3-carboxamide], the “Cisplatin Sensitization Assay” value is given as “+++ (Compounds with a Cisplatin sensitization value of <0.02 μM are marked with “+++.”)”.

Consider `CC1CN(C)CCN1c1ccncc1NC(=O)c1c(N)nn2cc(Cl)cnc12` (stereo not shown) [I-N-72, 2-amino-6-chloro-N-(4-(2,4-dimethylpiperazin-1-yl)pyridin-3-yl)pyrazolo[1,5-a]pyrimidine-3-carboxamide], for which the “Cisplatin Sensitization Assay” value is listed as “+++ (Compounds with a Cisplatin sensitization value of <0.02 μM are marked with “+++.”)”.

For `Cc1ncnn1-c1ccncc1NC(=O)c1c(N)nn2cc(F)cnc12` [I-N-162, 2-amino-6-fluoro-N-(4-(5-methyl-1H-1,2,4-triazol-1-yl)pyridin-3-yl)pyrazolo[1,5-a]pyrimidine-3-carboxamide], the “Cisplatin Sensitization Assay” value is given as “++ (Compounds with a Cisplatin sensitization value >0.02 μM but <0.2 μM are marked with “++.”)”.

On to `Nc1nn2cc(F)cnc2c1C(=O)Nc1cncc(C2CC2)c1N1CCN(C2COC2)CC1` [I-N-32, 2-amino-N-(5-cyclopropyl-4-(4-(oxetan-3-yl)piperazin-1-yl)pyridin-3-yl)-6-fluoropyrazolo[1,5-a]pyrimidine-3-carboxamide], for which the “Cisplatin Sensitization Assay” value was “++ (Compounds with a Cisplatin sensitization value >0.02 μM but <0.2 μM are marked with “++.”)”.

Regarding `Nc1nn2cc(F)cnc2c1C(=O)Nc1cncc(F)c1N1CCN2C(=O)CCCC2C1` (stereo not shown) [I-N-277, 2-amino-6-fluoro-N-(5-fluoro-4-(6-oxohexahydro-1H-pyrido[1,2-a]pyrazin-2(6H)-yl)pyridin-3-yl)pyrazolo[1,5-a]pyrimidine-3-carboxamide], the “Cisplatin Sensitization Assay” value is recorded as “+++ (Compounds with a Cisplatin sensitization value of <0.02 μM are marked with “+++.”)”.

As to `CN1CCN(C(=O)C2CCN(c3ccncc3NC(=O)c3c(N)nn4cc(F)cnc34)CC2)CC1` [I-G-1, 2-amino-6-fluoro-N-(4-(4-(4-methylpiperazine-1-carbonyl)piperidin-1-yl)pyridin-3-yl)pyrazolo[1,5-a]pyrimidine-3-carboxamide], the “Cisplatin Sensitization Assay” value is listed as “+++ (Compounds with a Cisplatin sensitization value of <0.02 μM are marked with “+++.”)”.

With `COCCN1CCN(c2c(F)cncc2NC(=O)c2c(N)nn3cc(F)cnc23)CC1` [I-N-127, 2-amino-6-fluoro-N-(5-fluoro-4-(4-(2-methoxyethyl)piperazin-1-yl)pyridin-3-yl)pyrazolo[1,5-a]pyrimidine-3-carboxamide], the “Cisplatin Sensitization Assay” value was “+++ (Compounds with a Cisplatin sensitization value of <0.02 μM are marked with “+++.”)”.

Take `Nc1nn2cc(Cl)cnc2c1C(=O)Nc1cnccc1N1CCNCC1` [I-N-88, 2-amino-6-chloro-N-(4-(piperazin-1-yl)pyridin-3-yl)pyrazolo[1,5-a]pyrimidine-3-carboxamide]: the “Cisplatin Sensitization Assay” value is on record as “++ (Compounds with a Cisplatin sensitization value >0.02 μM but <0.2 μM are marked with “++.”)”.

Turning to `COC(=O)[C@H]1CC[C@H](Oc2ccncc2NC(=O)c2c(N)nn3cc(F)cnc23)CC1` [I-O-13, (1r,4r)-methyl 4-((3-(2-amino-6-fluoropyrazolo[1,5-a]pyrimidine-3-carboxamido)pyridin-4-yl)oxy)cyclohexanecarboxylate], the “Cisplatin Sensitization Assay” value is recorded as “+++ (Compounds with a Cisplatin sensitization value of <0.02 μM are marked with “+++.”)”.

As to `Nc1nn2cc(F)cnc2c1C(=O)Nc1cncc(Cl)c1N1CCN(C2CCOC2)CC1` (stereo not shown) [I-N-124, 2-amino-N-(5-chloro-4-(4-(tetrahydrofuran-3-yl)piperazin-1-yl)pyridin-3-yl)-6-fluoropyrazolo[1,5-a]pyrimidine-3-carboxamide], the “Cisplatin Sensitization Assay” value is “+++ (Compounds with a Cisplatin sensitization value of <0.02 μM are marked with “+++.”)”.

On to `CN1CCC(S(=O)(=O)N2CCN(c3c(F)cncc3NC(=O)c3c(N)nn4cc(F)cnc34)CC2)CC1` [I-N-175, 2-amino-6-fluoro-N-(5-fluoro-4-(4-((1-methylpiperidin-4-yl)sulfonyl)piperazin-1-yl)pyridin-3-yl)pyrazolo[1,5-a]pyrimidine-3-carboxamide], for which the “Cisplatin Sensitization Assay” value is “+++ (Compounds with a Cisplatin sensitization value of <0.02 μM are marked with “+++.”)”.

As to `CNc1cc(OC)c(NC(=O)c2c(N)nn3cc(F)cnc23)cn1` [I-O-90, 2-amino-6-fluoro-N-(4-methoxy-6-(methylamino)pyridin-3-yl)pyrazolo[1,5-a]pyrimidine-3-carboxamide], the “Cisplatin Sensitization Assay” value is “+ (Compounds with a Cisplatin sensitization value >0.2 μM but <5 μM are marked with “+.”)”.

For `CN1CC2(CCN(c3ccncc3NC(=O)c3c(N)nn4cc(F)cnc34)CC2)OC1=O` [I-N-216, 2-amino-6-fluoro-N-(4-(3-methyl-2-oxo-1-oxa-3,8-diazaspiro[4.5]decan-8-yl)pyridin-3-yl)pyrazolo[1,5-a]pyrimidine-3-carboxamide], the “Cisplatin Sensitization Assay” value is on record as “+++ (Compounds with a Cisplatin sensitization value of <0.02 μM are marked with “+++.”)”.

`CN1CCC[C@@H]1C(=O)N1CCN(c2ccncc2NC(=O)c2c(N)nn3cc(F)cnc23)CC1` [I-N-199, (R)-2-amino-6-fluoro-N-(4-(4-(1-methylpyrrolidine-2-carbonyl)piperazin-1-yl)pyridin-3-yl)pyrazolo[1,5-a]pyrimidine-3-carboxamide]: the “Cisplatin Sensitization Assay” value is on record as “+++ (Compounds with a Cisplatin sensitization value of <0.02 μM are marked with “+++.”)”.

For `CN(C)CCNC(=O)C1CCN(c2c(F)cncc2NC(=O)c2c(N)nn3cc(F)cnc23)CC1` [I-G-30, 2-amino-N-(4-(4-((2-(dimethylamino)ethyl)carbamoyl)piperidin-1-yl)-5-fluoropyridin-3-yl)-6-fluoropyrazolo[1,5-a]pyrimidine-3-carboxamide], the “Cisplatin Sensitization Assay” value is recorded as “+++ (Compounds with a Cisplatin sensitization value of <0.02 μM are marked with “+++.”)”.

With `Nc1nn2cc(F)cnc2c1C(=O)Nc1cncc(F)c1N1CCC(C(=O)N2CCC(N3CCCCC3)CC2)CC1` [I-G-60, N-(4-(4-([1,4′-bipiperidine]-1′-carbonyl)piperidin-1-yl)-5-fluoropyridin-3-yl)-2-amino-6-fluoropyrazolo[1,5-a]pyrimidine-3-carboxamide], the “Cisplatin Sensitization Assay” value was “+++ (Compounds with a Cisplatin sensitization value of <0.02 μM are marked with “+++.”)”.

On to `Cc1nc(C(=O)N2CCN(C)CC2)ccc1-c1ccncc1NC(=O)c1c(N)nn2cc(F)cnc12` [I-C-39, 2-amino-6-fluoro-N-(2-methyl-6-(4-methylpiperazine-1-carbonyl)-[3,4′-bipyridin]-3′-yl)pyrazolo[1,5-a]pyrimidine-3-carboxamide], for which the “Cisplatin Sensitization Assay” value was “+++ (Compounds with a Cisplatin sensitization value of <0.02 μM are marked with “+++.”)”.

For `CN1CCC(NC(=O)C2CCN(c3c(F)cncc3NC(=O)c3c(N)nn4cc(F)cnc34)CC2)C1` (stereo not shown) [I-G-24, 2-amino-6-fluoro-N-(5-fluoro-4-(4-((1-methylpyrrolidin-3-yl)carbamoyl)piperidin-1-yl)pyridin-3-yl)pyrazolo[1,5-a]pyrimidine-3-carboxamide], the “Cisplatin Sensitization Assay” value is reported as “+++ (Compounds with a Cisplatin sensitization value of <0.02 μM are marked with “+++.”)”.

For the compound `Nc1nn2cc(Cl)cnc2c1C(=O)Nc1cnccc1N1CCCC(N)C1` (stereo not shown) [I-N-55, 2-amino-N-(4-(3-aminopiperidin-1-yl)pyridin-3-yl)-6-chloropyrazolo[1,5-a]pyrimidine-3-carboxamide], the “Cisplatin Sensitization Assay” value was “++ (Compounds with a Cisplatin sensitization value >0.02 μM but <0.2 μM are marked with “++.”)”.

For `Nc1nn2cc(F)cnc2c1C(=O)Nc1cncc(F)c1N1CCC2(CC1)COC2` [I-N-239, 2-amino-6-fluoro-N-(5-fluoro-4-(2-oxa-7-azaspiro[3.5]nonan-7-yl)pyridin-3-yl)pyrazolo[1,5-a]pyrimidine-3-carboxamide], the “Cisplatin Sensitization Assay” value was “+++ (Compounds with a Cisplatin sensitization value of <0.02 μM are marked with “+++.”)”.

With `C[C@H]1CN(C(=O)C2CCN(c3c(F)cncc3NC(=O)c3c(N)nn4cc(F)cnc34)CC2)CCN1` [I-G-61, (S)-2-amino-6-fluoro-N-(5-fluoro-4-(4-(3-methylpiperazine-1-carbonyl)piperidin-1-yl)pyridin-3-yl)pyrazolo[1,5-a]pyrimidine-3-carboxamide], the “Cisplatin Sensitization Assay” value is listed as “+++ (Compounds with a Cisplatin sensitization value of <0.02 μM are marked with “+++.”)”.

Turning to `CN(C)CC1(O)CCN(c2ccncc2NC(=O)c2c(N)nn3cc(Cl)cnc23)CC1` [I-N-36, 2-amino-6-chloro-N-(4-(4-((dimethylamino)methyl)-4-hydroxypiperidin-1-yl)pyridin-3-yl)pyrazolo[1,5-a]pyrimidine-3-carboxamide], the “Cisplatin Sensitization Assay” value is “++ (Compounds with a Cisplatin sensitization value >0.02 μM but <0.2 μM are marked with “++.”)”.

Consider `Nc1nn2cc(F)cnc2c1C(=O)Nc1cnccc1N1CCN(S(=O)(=O)C2CC2)CC1` [I-N-176, 2-amino-N-(4-(4-(cyclopropylsulfonyl)piperazin-1-yl)pyridin-3-yl)-6-fluoropyrazolo[1,5-a]pyrimidine-3-carboxamide], for which the “Cisplatin Sensitization Assay” value is “+++ (Compounds with a Cisplatin sensitization value of <0.02 μM are marked with “+++.”)”.

In the case of `Nc1nn2cc(F)cnc2c1C(=O)Nc1cnccc1N1CCC(C(=O)N2CCC3(COC3)C2)CC1` [I-G-84, N-(4-(4-(2-oxa-6-azaspiro[3.4]octane-6-carbonyl)piperidin-1-yl)pyridin-3-yl)-2-amino-6-fluoropyrazolo[1,5-a]pyrimidine-3-carboxamide], the “Cisplatin Sensitization Assay” value is “+++ (Compounds with a Cisplatin sensitization value of <0.02 μM are marked with “+++.”)”.
